Assay results from PubChem BioAssay AID1918935 (Molecular Pharmacology Branch, DTP, NCI, 2023).
pIC50: −log10 of the molar value.

Test system: 324938-238-R-J1-PDC complex spheroid viability
Assay: Anticancer human tumor 324938-238-R-J1-PDC patient-derived bladder carcinoma cell line growth inhibition
Settings: for pIC50: curve of first compound; for viability, T/C: stronger effect = lower value
How it was run: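 Multicellular complex spheroids of tumor cells with human endothelial cells (HUVEC) and mesenchymal stem cells; the LSD1 inhibitor iadademstat was combined with standard-of-care or investigational agents. Top concentration at or near clinical Cmax, half-log dilutions; final DMSO ≤0.25%.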

[1] = second compound 0.1 µM, first compound 0.000316 µM
[2] = second compound 0.1 µM, first compound 0.001 µM
[3] = second compound 0.1 µM, first compound 0.00316 µM
[4] = second compound 0.1 µM, first compound 0.01 µM
[5] = second compound 0.1 µM, first compound 0.0316 µM
[6] = second compound 0.1 µM, first compound 0.1 µM
[7] = second compound 0.316 µM, first compound 0.000316 µM
[8] = second compound 0.316 µM, first compound 0.001 µM
[9] = second compound 0.316 µM, first compound 0.00316 µM
[10] = second compound 0.316 µM, first compound 0.01 µM
[11] = second compound 0.316 µM, first compound 0.0316 µM
[12] = second compound 0.316 µM, first compound 0.1 µM
[13] = second compound 1 µM, first compound 0.000316 µM
[14] = second compound 1 µM, first compound 0.001 µM
[15] = second compound 1 µM, first compound 0.00316 µM
[16] = second compound 1 µM, first compound 0.01 µM
[17] = second compound 1 µM, first compound 0.0316 µM
[18] = second compound 1 µM, first compound 0.1 µM
[19] = second compound 3.16 µM, first compound 0.000316 µM
[20] = second compound 3.16 µM, first compound 0.001 µM
[21] = second compound 3.16 µM, first compound 0.00316 µM
[22] = second compound 3.16 µM, first compound 0.01 µM
[23] = second compound 3.16 µM, first compound 0.0316 µM
[24] = second compound 3.16 µM, first compound 0.1 µM
[25] = second compound 10 µM, first compound 0.000316 µM
[26] = second compound 10 µM, first compound 0.001 µM
[27] = second compound 10 µM, first compound 0.00316 µM
[28] = second compound 10 µM, first compound 0.01 µM
[29] = second compound 10 µM, first compound 0.0316 µM
[30] = second compound 10 µM, first compound 0.1 µM
[31] = second compound 0.1 µM, first compound 0.316 µM
[32] = second compound 0.1 µM, first compound 1 µM
[33] = second compound 0.316 µM, first compound 0.316 µM
[34] = second compound 0.316 µM, first compound 1 µM
[35] = second compound 1 µM, first compound 0.316 µM
[36] = second compound 1 µM, first compound 1 µM
[37] = second compound 3.16 µM, first compound 0.316 µM
[38] = second compound 3.16 µM, first compound 1 µM
[39] = second compound 10 µM, first compound 0.316 µM
[40] = second compound 10 µM, first compound 1 µM
[41] = second compound 0.1 µM, first compound 3.16 µM
[42] = second compound 0.1 µM, first compound 10 µM
[43] = second compound 0.316 µM, first compound 3.16 µM
[44] = second compound 0.316 µM, first compound 10 µM
[45] = second compound 1 µM, first compound 3.16 µM
[46] = second compound 1 µM, first compound 10 µM
[47] = second compound 3.16 µM, first compound 3.16 µM
[48] = second compound 3.16 µM, first compound 10 µM
[49] = second compound 10 µM, first compound 3.16 µM
[50] = second compound 10 µM, first compound 10 µM
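Note: spheroids also contain HUVEC and human MSCs and agents combined with iadademstat; spheroids exposed to agents for 7 days before readout.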

Row | SMILES | pIC50 (second compound 0.1 µM) | pIC50 (second compound 0.316 µM) | pIC50 (second compound 1 µM) | pIC50 (second compound 3.16 µM) | pIC50 (second compound 10 µM) | viability, T/C [3] [%] | viability, T/C [4] [%] | viability, T/C [5] [%] | viability, T/C [6] [%] | viability, T/C [9] [%] | viability, T/C [10] [%] | viability, T/C [11] [%] | viability, T/C [12] [%] | viability, T/C [15] [%] | viability, T/C [17] [%] | viability, T/C [18] [%] | viability, T/C [23] [%] | viability, T/C [24] [%] | viability, T/C [29] [%] | viability, T/C [30] [%] | also measured
1 | CC[C@@]1(O)C(=O)OCc2c1cc1n(c2=O)Cc2cc3c(CN(C)C)c(O)ccc3nc2-1 + NC1CC1c1ccc(-c2cccc(O)c2)cc1 | 8.88 | 8.95 | 8.86 | 8.91 | 8.93 | 27 | 7.09 | 7.47 | 8.37 | 25.4 | 6.5 | 7.53 | 6.02 | 27.7 | 6.22 | 8.13 | 5.72 | 6.54 | 8.64 | 9.59 | viability, T/C [1]: 82.5%; viability, T/C [2]: 57%; viability, T/C [7]: 68.2%; viability, T/C [8]: 52.5%; viability, T/C [13]: 67.8%; viability, T/C [14]: 58.2%; viability, T/C [16]: 6.31%; viability, T/C [19]: 69.7%; viability, T/C [20]: 53.6%; viability, T/C [21]: 28.6%; viability, T/C [22]: 7%; viability, T/C [25]: 66.1%; viability, T/C [26]: 52.7%; viability, T/C [27]: 28.8%; viability, T/C [28]: 10.2%
2 | COc1cc(Nc2ncc3c(n2)-c2ccc(Cl)cc2C(c2c(F)cccc2OC)=NC3)ccc1C(=O)O + NC1CCC(NC2CC2c2ccccc2)CC1 | 7.68 | 7.73 | 7.73 | 7.81 | 7.68 | 75.9 | 67.5 | 39.9 | 23 | 79.8 | 65.7 | 37.4 | 20.5 | 73.3 | 38.5 | 19.6 | 39.9 | 24.9 | 40 | 31 | viability, T/C [31]: 20.4%; viability, T/C [32]: 17.9%; viability, T/C [33]: 18.3%; viability, T/C [34]: 20.9%; viability, T/C [16]: 63.5%; viability, T/C [35]: 21.9%; viability, T/C [36]: 19.4%; viability, T/C [21]: 74.2%; viability, T/C [22]: 56.1%; viability, T/C [37]: 21.7%; viability, T/C [38]: 21.2%; viability, T/C [27]: 70.7%; viability, T/C [28]: 65.3%; viability, T/C [39]: 22.7%; viability, T/C [40]: 23.1%
3 | O=C(c1cc(Cc2n[nH]c(=O)c3ccccc23)ccc1F)N1CCN(C(=O)C2CC2)CC1 + NC1CC1c1ccc(-c2cccc(O)c2)cc1 | 5.67 | 5.70 | 6.04 | 5.82 | 5.91 |  |  | 89.8 | 80.6 |  |  | 87.8 | 78.5 |  | 74.2 | 74.2 | 68.2 | 74 | 73.1 | 66.7 | viability, T/C [31]: 72.4%; viability, T/C [32]: 61.4%; viability, T/C [41]: 43.3%; viability, T/C [42]: 33.9%; viability, T/C [33]: 77.1%; viability, T/C [34]: 62.7%; viability, T/C [43]: 40.4%; viability, T/C [44]: 36.3%; viability, T/C [35]: 64.4%; viability, T/C [36]: 48%; viability, T/C [45]: 40.3%; viability, T/C [46]: 34.1%; viability, T/C [37]: 77.7%; viability, T/C [38]: 56%; viability, T/C [47]: 41.3%; viability, T/C [48]: 36.2%; viability, T/C [39]: 66.3%; viability, T/C [40]: 49.9%; viability, T/C [49]: 43.8%; viability, T/C [50]: 38.2%
4 | CC(C)c1c(-c2ccccc2)nc2c(C#N)c[nH]n2c1=O + NC1CCC(NC2CC2c2ccccc2)CC1 | < 5.00 | < 5.00 | < 5.00 | < 5.00 | < 5.00 |  |  | 69.7 | 90 |  |  | 83 | 84.1 |  | 87 | 90 | 72.8 | 78.9 | 66.5 | 70.7 | viability, T/C [31]: 85.2%; viability, T/C [32]: 89.2%; viability, T/C [41]: 82.2%; viability, T/C [42]: 74.6%; viability, T/C [33]: 84.4%; viability, T/C [34]: 84.8%; viability, T/C [43]: 81.4%; viability, T/C [44]: 78.7%; viability, T/C [35]: 78.2%; viability, T/C [36]: 84.9%; viability, T/C [45]: 81.6%; viability, T/C [46]: 80.9%; viability, T/C [37]: 87.7%; viability, T/C [38]: 80.6%; viability, T/C [47]: 80.1%; viability, T/C [48]: 74.3%; viability, T/C [39]: 75.9%; viability, T/C [40]: 75.1%; viability, T/C [49]: 65.6%; viability, T/C [50]: 77.9%
5 | CC(C)CC(NC(=O)C(Cc1ccccc1)NC(=O)c1cnccn1)B(O)O (stereo not given) + NC1CC1c1ccc(-c2cccc(O)c2)cc1 | 9.34 | 9.39 | 9.44 | 9.41 | 9.47 | 0.5 | 2.29 | 0.55 | 0.16 | 0.25 | 0.3 | 0.26 | 0.14 | 0.15 | 0.07 | 0.17 | 0.28 | 0.14 | 0.16 | 0.21 | viability, T/C [1]: 68.2%; viability, T/C [2]: 12.1%; viability, T/C [7]: 62%; viability, T/C [8]: 5.56%; viability, T/C [13]: 56%; viability, T/C [14]: 6.79%; viability, T/C [16]: 0.61%; viability, T/C [19]: 59.2%; viability, T/C [20]: 7.68%; viability, T/C [21]: 0.39%; viability, T/C [22]: 0.28%; viability, T/C [25]: 53.1%; viability, T/C [26]: 4.57%; viability, T/C [27]: 0.15%; viability, T/C [28]: 0.15%
